# Experimental data taken from US20090312340A1 (priority 2007, published 2009).
# Key:
# [1] = test system: patients with non-ST elevation acute coronary syndrome; experiment: MERLIN-TIMI 36: arrhythmias on continuous ECG (Holter) recording, first 7 days; format: in vivo, human
# Method: The safety endpoint data for incidence of clinically significant arrhythmias during 7 day Holter monitoring from MERLIN-TIMI 36 is shown in Table 24 below.
# Continuous ECG (Holter) recording was performed for the first 7 days after randomization. Because of the known prolongation of the QT interval with ranolazine, analyses of a prespecified set of arrhythmias were a major objective of the trial. All arrhythmias were evaluated in the TIMI ECG Core Laboratory by cardiologists blinded to treatment and outcomes.
# Continuous ECG (cECG or Holter) recording was performed for the first 7 days after randomization. Prespecified arrhythmia analyses were evaluated by a core laboratory blinded to treatment and outcomes.
# [2] = test system: patients with non-ST elevation acute coronary syndrome; experiment: MERLIN-TIMI 36: ischemia on Holter / continuous ECG (CECG); format: in vivo, human; conditions: >72 hours after randomization, ranolazine vs placebo
# Method: At randomization, 6355 patients (99%) had 3-lead CECG monitoring initiated (median duration 6.9 days). The primary CECG endpoint was the rate of ST dep>1 mm from baseline lasting >1 minute with heart rate at onset <100 bpm. Exploratory analyses using ST dep>0.5 mm were also performed.
# [3] = test system: patients with non-ST elevation acute coronary syndrome; experiment: MERLIN-TIMI 36: Seattle Angina Questionnaire scores at 4 months; format: in vivo, human
# Description: The MERLIN-TIMI 36 secondary efficacy endpoint (ITT) Seattle Angina Questionnaire scores at 4 months for anginal frequency scale are shown in Table 16 below, and scores for physical limitation scale are shown in Table 17 below.
# [4] = test system: women with NSTE ACS; experiment: MERLIN-TIMI 36: outcomes in women with NSTE ACS; format: in vivo, human; conditions: ranolazine vs placebo
# [5] = test system: patients with non-ST elevation ACS; experiment: MERLIN-TIMI 36: HbA1c and hyperglycemia; format: in vivo, human
# Description: The proportion of patients in the MERLIN-TIMI 36 study with HBA1C ≧7% is shown in Table 28 below (and see FIG. 15).
# The proportion of patients with HBA1C ≧7% (with diabetes or no diabetes) at various times during the MERLIN-TIMI 36 study is shown in Table 29 below (and FIG. 16).
# HbA1c data are reported as least-square means. Patients categorized as “diabetic” had been diagnosed as diabetic before or at the time of randomization. Patients categorized as “no diabetes” had not been diagnosed as diabetic before or at the time of randomization. Some patients characterized as “no diabetes” may have been diagnosed as “diabetic” during the trial; however, these patients are still listed in the “no diabetes” category in FIG. 4B.
# [6] = test system: patients with non-ST elevation acute coronary syndrome; experiment: MERLIN-TIMI 36: safety endpoints (death from any cause, symptomatic documented arrhythmias, CV hospitalization); format: in vivo
# [7] = test system: patients with non-ST elevation acute coronary syndrome; experiment: MERLIN-TIMI 36: arrhythmias on continuous ECG (Holter) recording, first 7 days; format: in vivo, human; conditions: group allocated to ranolazine
# [8] = test system: patients with NSTE-ACS who underwent PCI; experiment: MERLIN-TIMI 36 post-hoc analysis: VT, CV death and sudden cardiac death after PCI; format: in vivo, human; conditions: n = 737
# Method: The incidence of ventricular tachyarrhythmias after percutaneous coronary intervention (PCI) is low, but has been associated with worse clinical outcomes.
# The MERLIN-TIMI 36 trial randomized 6560 pts to RAN or placebo (PLA) stratified according to whether an early invasive or conservative medical strategy was planned. The target RAN dose was 1000 mg bid and could be titrated downward at the investigator's discretion. Continuous Holter monitoring was performed for the first 7 days after randomization. Patients (RAN=737, PLA=754) with at least 2 hrs of evaluable Holter data from start of PCI or patients with at least 1 hour of evaluable Holter data if Holter was restarted within 1 hour from start of PCI were included in this post-hoc analysis. The incidence of non-sustained VT episodes (≧100 bpm lasting at least 8 beats but <30 sec) post PCI was compared using Cochran-Mantel-Haenzel test for general association, stratified by intent for early invasive strategy.
# [9] = Baseline (in-hospital visit prior to randomization), all patients dosed n = 3268
# [10] = Diabetes at enrollment (n = 1098), Baseline
# [11] = Diabetes at enrollment (n = 1098), Final Visit
# [12] = Diabetes at enrollment (n = 1098), Month 4
# [13] = Diabetes at enrollment (n = 1098), Month 8
# [14] = Diabetes at enrollment (n = 1098), Month 16
# [15] = Final Visit, all patients dosed n = 3268
# [16] = Month 4, all patients dosed n = 3268
# [17] = Month 8, all patients dosed n = 3268
# [18] = Month 16, all patients dosed n = 3268
# [19] = No Diabetes at enrollment (n = 2170), Baseline
# [20] = No Diabetes at enrollment (n = 2170), Final Visit
# [21] = No Diabetes at enrollment (n = 2170), Month 4
# [22] = No Diabetes at enrollment (n = 2170), Month 8
# [23] = No Diabetes at enrollment (n = 2170), Month 16
# [24] = PCI patients, average follow-up ~1 year
# [25] = within 2 hours from start of PCI
compound,measurement,setting,value
"COc1ccccc1OCC(O)CN1CCN(CC(=O)Nc2c(C)cccc2C)CC1 (racemic) [Ranolazine, (±)-N-(2,6-dimethylphenyl)-4-[2-hydroxy-3-(2-methoxyphenoxy)-propyl]-1-piperazineacetamide]","Supraventricular tachycardia on cECG, no. of patients","[1]; Example 9, patients with valid cECG recording",1413
same,"Any clinically significant arrhythmia during 7 day Holter, incidence","[1]; all patients dosed, n = 3268",71.3%
same,"Any clinically significant arrhythmia during 7 day Holter, no. of pts","[1]; all patients dosed, n = 3268",2330
same,"Bradycardic episode during 7 day Holter, incidence","[1]; all patients dosed, n = 3268",38.5%
same,"Bradycardic episode during 7 day Holter, no. of pts","[1]; all patients dosed, n = 3268",1257
same,"New onset atrial fibrillation during 7 day Holter, incidence","[1]; all patients dosed, n = 3268",1.7%
same,"New onset atrial fibrillation during 7 day Holter, no. of pts","[1]; all patients dosed, n = 3268",55
same,"Supraventricular tachycardia (any SVT >=120 bpm) during 7 day Holter, incidence","[1]; all patients dosed, n = 3268",43.2%
same,"Supraventricular tachycardia (any SVT >=120 bpm) during 7 day Holter, no. of pts","[1]; all patients dosed, n = 3268",1413
same,"Ventricular tachycardia (any VT >= 100 bpm >=3 beats) during 7 day Holter, incidence","[1]; all patients dosed, n = 3268",29.0%
same,"Ventricular tachycardia (any VT >= 100 bpm >=3 beats) during 7 day Holter, no. of pts","[1]; all patients dosed, n = 3268",948
same,Δ in patients with Sustained VT (>=30 sec),[1]; placebo vs ranolazine,0
same,Δ (%) Polymorphic VT >= 8 beats,[1]; ranolazine vs placebo,−21%
same,Δ (%) VT ≧ 3 beats (≧100 b/m),[1]; ranolazine vs placebo,−17%
same,Δ (%) VT ≧ 4 beats (≧100 b/m),[1]; ranolazine vs placebo,−30%
same,Δ (%) VT ≧ 8 beats (<30 sec),[1]; ranolazine vs placebo,−37%
same,"RR, CECG events",[2],0.86
same,"SAQ Physical Limitation Scale score, 25th percentile-75th percentile",[3]; N 2339,55.6-94.4
same,"SAQ Physical Limitation Scale score, Min-Max",[3]; N 2339,0-100
same,"SAQ Anginal Frequency Scale score, 25th percentile-75th percentile",[3]; N 2558,80-100
same,"SAQ Anginal Frequency Scale score, Median",[3]; N 2558,100
same,"SAQ Anginal Frequency Scale score, Min-Max",[3]; N 2558,0-100
same,"HR, worsening angina",[4],0.61
same,"Patients with HbA1C ≧7%, no.",[5]; [9],655
same,Proportion of patients with HbA1C ≧7%,[5]; [9],24%
same,"Patients with HbA1C ≧7%, no.",[5]; [10],542
same,Proportion of patients with HbA1C ≧7%,[5]; [10],57%
same,"Patients with HbA1C ≧7%, no.",[5]; [11],324
same,Proportion of patients with HbA1C ≧7%,[5]; [11],42%
same,"Patients with HbA1C ≧7%, no.",[5]; [12],326
same,Proportion of patients with HbA1C ≧7%,[5]; [12],41%
same,"Patients with HbA1C ≧7%, no.",[5]; [13],263
same,Proportion of patients with HbA1C ≧7%,[5]; [13],44%
same,"Patients with HbA1C ≧7%, no.",[5]; [14],63
same,Proportion of patients with HbA1C ≧7%,[5]; [14],48%
same,"Patients with HbA1C ≧7%, no.",[5]; [15],416
same,Proportion of patients with HbA1C ≧7%,[5]; [15],17%
same,"Patients with HbA1C ≧7%, no.",[5]; [16],404
same,Proportion of patients with HbA1C ≧7%,[5]; [16],17%
same,"Patients with HbA1C ≧7%, no.",[5]; [17],335
same,Proportion of patients with HbA1C ≧7%,[5]; [17],18%
same,"Patients with HbA1C ≧7%, no.",[5]; [18],84
same,Proportion of patients with HbA1C ≧7%,[5]; [18],20%
same,"Patients with HbA1C ≧7%, no.",[5]; [19],113
same,Proportion of patients with HbA1C ≧7%,[5]; [19],6%
same,"Patients with HbA1C ≧7%, no.",[5]; [20],92
same,Proportion of patients with HbA1C ≧7%,[5]; [20],6%
same,"Patients with HbA1C ≧7%, no.",[5]; [21],78
same,Proportion of patients with HbA1C ≧7%,[5]; [21],5%
same,"Patients with HbA1C ≧7%, no.",[5]; [22],72
same,Proportion of patients with HbA1C ≧7%,[5]; [22],6%
same,"Patients with HbA1C ≧7%, no.",[5]; [23],21
same,Proportion of patients with HbA1C ≧7%,[5]; [23],7%
same,"Death or CV hospitalization endpoint-defining events: CV hospitalization, % of pts with events","[6]; all patients dosed, n = 3268",89.3%
same,"Death or CV hospitalization endpoint-defining events: CV hospitalization, no. of pts","[6]; all patients dosed, n = 3268",926
same,"Death or CV hospitalization endpoint-defining events: Death, % of pts with events","[6]; all patients dosed, n = 3268",10.7%
same,"Death or CV hospitalization endpoint-defining events: Death, no. of pts","[6]; all patients dosed, n = 3268",111
same,"Cardiac arrest NOS, incidence","[6]; human, in vivo",0.3%
same,"Cardiac arrest NOS, no. of pts","[6]; human, in vivo",10
same,"Symptomatic documented arrhythmias - overall, incidence","[6]; human, in vivo",3.0%
same,"Symptomatic documented arrhythmias - overall, no. of pts","[6]; human, in vivo",99
same,"Symptomatic documented bradyarrhythmias, incidence","[6]; human, in vivo",1.0%
same,"Symptomatic documented bradyarrhythmias, no. of pts","[6]; human, in vivo",34
same,"Symptomatic documented supraventricular arrhythmias, incidence","[6]; human, in vivo",1.2%
same,"Symptomatic documented supraventricular arrhythmias, no. of pts","[6]; human, in vivo",38
same,"Symptomatic documented ventricular arrhythmias, incidence","[6]; human, in vivo",0.7%
same,"Symptomatic documented ventricular arrhythmias, no. of pts","[6]; human, in vivo",22
same,"HR, total mortality",[6]; ranolazine vs placebo,0.99
same,"Clinically reported sudden cardiac death, no. of patients",[7],56
same,"CVD (cardiovascular death) - anytime, incidence",[8]; [24],0.9%
same,"CVD (cardiovascular death) - anytime, no. of patients",[8]; [24],7
same,"SCD (sudden cardiac death) - anytime, incidence",[8]; [24],0.1%
same,"SCD (sudden cardiac death) - anytime, no. of patients",[8]; [24],1
same,"CVD (cardiovascular death) - 30 days, incidence",[8]; PCI patients,0.5%
same,"CVD (cardiovascular death) - 30 days, no. of patients",[8]; PCI patients,4
same,"SCD (sudden cardiac death) - 30 days, incidence",[8]; PCI patients,0.1%
same,"SCD (sudden cardiac death) - 30 days, no. of patients",[8]; PCI patients,1
same,"VT ≧ 8 beats, % of patients with at least 1 episode",[8]; [25],1.1%
same,"VT ≧ 8 beats, no. of patients with at least 1 episode",[8]; [25],8
